Experimental data taken from US20030224349A1, “Rapid assay to assess the potential for glucocorticoid analogs to promote the differentiation of human osteoblasts and predict bone safety” (Pfizer Inc., priority 2002, published 2003).
Where two headings read alike, the source gives them in different places.

Experiments:
Format in all cases: cell-based
MMP13 = test: inhibition of IL-1β-induced MMP13 release in SW1353 chondrocyte cells (ELISA); conditions: Homo sapiens, read-out: IC50, concentration reducing the release of MMP13 50%
[1] = system: primary human osteoblasts; test: alkaline phosphatase assay in primary human osteoblasts; conditions: 13 days of treatment
Protocol: For alkaline phosphatase testing, primary human osteoblasts (Biowhittaker CC-2538) were plated at a density of 4,400 cells per well in 24-well plates containing OGM medium (Biowhittaker CC-3207) with 10% Fetal Bovine Serum (FBS). The next day media was changed to OGM medium supplemented with 0.1 mM ascorbic acid and 10 mM □-glycerophosphate (differentiation supplements, Biowhittaker CC-4194), and treated with reference and test compounds in a range of doses from 100 nM to 10 uM). Fresh media was added 2× per week.
After 13 days the cells were harvested and extract prepared for analysis.
Differentiation supplement medium was changed every three to four days with fresh test compound addition each time. After seven to thirteen days, the amount of alkaline phosphatase produced by the cultures was quantified using commercial alkaline phosphatase reagent (ALP Reagent) and standard (Sigma M2266 and 245-10, respectively).
Cells were rinsed with 0.9% NaCl, and lysed in alkaline phosphatase assay buffer (150 mM Tris-HCl pH 8, 0.1 mM MgCl2, 0.1 mM ZnCl2, 1% Triton X-100). Prewarmed ALP Reagent was added to lysate or to serial dilutions of the alkaline phosphatase standard and incubated at 37° C. for 30 minutes.
The calorimetric endpoint of absorbance at 405 nm was read on a SpectraMax 340 microplate reader (Molecular Devices), and after extrapolation from standard curve, values were reported in units of enzyme activity per volume.

[2] = system: primary human osteoblasts; test: nodule assay (Von Kossa staining) in primary human osteoblasts; conditions: 28 days of treatment
Protocol: Primary human osteoblasts were cultured as for the alkaline phosphatase assay. After 28 days of test compound treatment, the cultures were fixed with 70% ethanol for 10 minutes, stained with 5% silver nitrate solution and exposed to bright light (Polaroid imaging system with 4×150 watt lamps) for 20 to 30 minutes. Wells were rinsed with water, air dried and nodules documented by micrographs at 300× magnification.

IL-8 = test: inhibition of IL-1β-induced IL-8 release in SW1353 chondrocyte cells (ELISA); conditions: Homo sapiens, SW1353, 24 h, read-out: IC50, concentration reducing the release of IL-8 50%
Protocol: Glucocorticoids have anti-inflammatory efficacy in a variety of cell models. Clinically, glucocorticoids set the benchmark for anti-inflammatory therapeutics.
For efficacy testing, 10,000 SW1353 cells (ATCC# HTB-94) were plated in 96 well plates in DMEM with 10% Fetal Bovine Serum (FBS). The next day media was changed to DMEM without serum.
After 24 hours the amount of MMP13 and IL-8 released into the media was quantified using commercial ELISA assays (Amersham and R&D Systems, respectively).
The concentration of compound reducing the release of MMP13 or IL-8 50% (IC50) was determined from the plot of the drug dose vs. percent inhibition relative to the vehicle control.

Compound	IC50 (MMP13; SW1353 cells, 10 ng/ml IL-1β, 24 hours) [nM]	induction of alkaline phosphatase production/activity (in words) [1]	alkaline phosphatase expression, % of dexamethasone maximum ([1]; at 1 uM)	induction of alkaline phosphatase production/activity (in words) ([1]; listed as Hydrocortisone)	nodule formation / mineral deposition (Von Kossa staining, in words) [2]	IC50 (MMP13; SW1353, 24 h) [nM]	IC50 (IL-8) [nM]
C[C@]12CCC(=O)C=C1CC[C@@H]1[C@@H]2[C@@H](O)C[C@@]2(C)[C@H]1CC[C@]2(O)C(=O)CO [hydrocortisone]	60	stimulated	about 64%	dose dependent increase	dose-dependant nodule formation		
C[C@@H]1C[C@H]2[C@@H]3CCC4=CC(=O)C=C[C@]4(C)[C@@]3(F)[C@@H](O)C[C@]2(C)[C@@]1(O)C(=O)CO [dexamethasone]						~1	~1
